Measured values: PubChem BioAssay (NCI)
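96-well plates; 48 h exposure; 5 concentrations. Endpoints by linear interpolation between flanking doses. Not reached: highest tested concentration assigned. GI50 = concentration required for 50% inhibition of growth. Definition used: TGI = concentration required for complete inhibition of growth.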

Legend:
Assay in all cases: NCI anticancer screen, dose series, 48 h
MCF7 breast = test system: MCF7 breast
K-562 leukemia = test system: K-562 leukemia
HCT-15 colon = test system: HCT-15 colon
SK-MEL-28 melanoma = test system: SK-MEL-28 melanoma
M14 melanoma = test system: M14 melanoma
RXF 393 renal = test system: RXF 393 renal
DU-145 prostate = test system: DU-145 prostate
SW-620 colon = test system: SW-620 colon
SK-OV-3 ovarian = test system: SK-OV-3 ovarian
SNB-75 CNS = test system: SNB-75 CNS
SK-MEL-5 melanoma = test system: SK-MEL-5 melanoma
HCC-2998 colon = test system: HCC-2998 colon
OVCAR-5 ovarian = test system: OVCAR-5 ovarian
LOX IMVI melanoma = test system: LOX IMVI melanoma
RPMI-8226 leukemia = test system: RPMI-8226 leukemia
T-47D breast = test system: T-47D breast
OVCAR-3 ovarian = test system: OVCAR-3 ovarian
MDA-MB-435 = test system: MDA-MB-435
SR leukemia = test system: SR leukemia
HT29 colon = test system: HT29 colon
SK-MEL-2 melanoma = test system: SK-MEL-2 melanoma
UO-31 renal = test system: UO-31 renal
UACC-62 melanoma = test system: UACC-62 melanoma
MDA-MB-231 breast = test system: MDA-MB-231 breast
SF-268 CNS = test system: SF-268 CNS
OVCAR-8 ovarian = test system: OVCAR-8 ovarian
MALME-3M melanoma = test system: MALME-3M melanoma
A498 renal = test system: A498 renal
NCI-H226 lung = test system: NCI-H226 lung
OVCAR-4 ovarian = test system: OVCAR-4 ovarian
UACC-257 melanoma = test system: UACC-257 melanoma
HOP-92 NSCLC = test system: HOP-92 NSCLC
SNB-19 CNS = test system: SNB-19 CNS
ACHN renal = test system: ACHN renal
NCI/ADR-RES ovarian = test system: NCI/ADR-RES ovarian
NCI-H23 lung = test system: NCI-H23 lung
KM12 colon = test system: KM12 colon
MOLT-4 leukemia = test system: MOLT-4 leukemia
IGROV1 ovarian = test system: IGROV1 ovarian
NCI-H460 lung = test system: NCI-H460 lung
COLO 205 colon = test system: COLO 205 colon
CAKI-1 renal = test system: CAKI-1 renal
HOP-62 NSCLC = test system: HOP-62 NSCLC
EKVX NSCLC = test system: EKVX NSCLC
PC-3 prostate = test system: PC-3 prostate
SF-539 CNS = test system: SF-539 CNS
SN12C renal = test system: SN12C renal
BT-549 breast = test system: BT-549 breast
HL-60(TB) leukemia = test system: HL-60(TB) leukemia
HS 578T breast = test system: HS 578T breast
A549 NSCLC = test system: A549 NSCLC
HCT-116 colon = test system: HCT-116 colon
SF-295 CNS = test system: SF-295 CNS
TK-10 renal = test system: TK-10 renal
U251 CNS = test system: U251 CNS
786-0 renal = test system: 786-0 renal
CCRF-CEM leukemia = test system: CCRF-CEM leukemia
NCI-H522 lung = test system: NCI-H522 lung

Cc1cc(I)cc(CN(C)CCCN2CCOCC2)c1O was tested, and the GI50 (MCF7 breast) was 32.7 µM, the TGI (MCF7 breast) was over 100 µM and the GI50 (K-562 leukemia) was 18 µM. It also gave a TGI (K-562 leukemia) of 39.5 µM, a GI50 (HCT-15 colon) of 29 µM and a TGI (HCT-15 colon) of over 100 µM. The GI50 (SK-MEL-28 melanoma) was 17.4 µM, the TGI (SK-MEL-28 melanoma) was 32.3 µM and the GI50 (M14 melanoma) was 16 µM. It also gave a TGI (M14 melanoma) of 32.3 µM, a GI50 (RXF 393 renal) of 11.8 µM and a TGI (RXF 393 renal) of 38.2 µM. The GI50 (DU-145 prostate) was over 100 µM, the TGI (DU-145 prostate) was over 100 µM and the GI50 (SW-620 colon) was 33.5 µM. The TGI (SW-620 colon) was over 100 µM, the GI50 (SK-OV-3 ovarian) was 82.9 µM and the TGI (SK-OV-3 ovarian) was over 100 µM. It also gave a GI50 (SNB-75 CNS) of 21 µM, a TGI (SNB-75 CNS) of 87.4 µM and a GI50 (SK-MEL-5 melanoma) of 15.5 µM. It also gave a TGI (SK-MEL-5 melanoma) of 28.9 µM, a GI50 (HCC-2998 colon) of 35.4 µM and a TGI (HCC-2998 colon) of over 100 µM. For the same compound, the GI50 (OVCAR-5 ovarian) was 45.3 µM, the TGI (OVCAR-5 ovarian) was over 100 µM and the GI50 (LOX IMVI melanoma) was 29.8 µM. It also gave a TGI (LOX IMVI melanoma) of over 100 µM, a GI50 (RPMI-8226 leukemia) of 17.8 µM and a TGI (RPMI-8226 leukemia) of 46 µM. It also gave a GI50 (T-47D breast) of 29.1 µM, a TGI (T-47D breast) of over 100 µM and a GI50 (OVCAR-3 ovarian) of over 100 µM. It also gave a TGI (OVCAR-3 ovarian) of over 100 µM, a GI50 (MDA-MB-435) of 26 µM and a TGI (MDA-MB-435) of over 100 µM. It also gave a GI50 (SR leukemia) of 19.6 µM, a TGI (SR leukemia) of 48 µM and a GI50 (HT29 colon) of 16.5 µM. For the same compound, the TGI (HT29 colon) was 33.6 µM, the GI50 (SK-MEL-2 melanoma) was 19.6 µM and the TGI (SK-MEL-2 melanoma) was 38.5 µM. The GI50 (UO-31 renal) was 22.1 µM, the TGI (UO-31 renal) was 94.4 µM and the GI50 (UACC-62 melanoma) was 13.1 µM. For the same compound, the TGI (UACC-62 melanoma) was 30.5 µM, the GI50 (MDA-MB-231 breast) was 39.7 µM and the TGI (MDA-MB-231 breast) was over 100 µM. For the same compound, the GI50 (SF-268 CNS) was 38.3 µM, the TGI (SF-268 CNS) was over 100 µM and the GI50 (OVCAR-8 ovarian) was over 100 µM. The TGI (OVCAR-8 ovarian) was over 100 µM, the GI50 (MALME-3M melanoma) was 16.2 µM and the TGI (MALME-3M melanoma) was 32.9 µM. The GI50 (A498 renal) was 19.1 µM, the TGI (A498 renal) was 48.6 µM and the GI50 (NCI-H226 lung) was 99.9 µM. It also gave a TGI (NCI-H226 lung) of over 100 µM, a GI50 (OVCAR-4 ovarian) of 63.2 µM and a TGI (OVCAR-4 ovarian) of over 100 µM. The GI50 (UACC-257 melanoma) was 21.6 µM, the TGI (UACC-257 melanoma) was 44.8 µM and the GI50 (HOP-92 NSCLC) was 15.7 µM. The TGI (HOP-92 NSCLC) was 98.2 µM, the GI50 (SNB-19 CNS) was 67.7 µM and the TGI (SNB-19 CNS) was over 100 µM. It also gave a GI50 (ACHN renal) of over 100 µM, a TGI (ACHN renal) of over 100 µM and a GI50 (NCI/ADR-RES ovarian) of 67.5 µM. It also gave a TGI (NCI/ADR-RES ovarian) of over 100 µM, a GI50 (NCI-H23 lung) of 72.3 µM and a TGI (NCI-H23 lung) of over 100 µM. For the same compound, the GI50 (KM12 colon) was 29.6 µM, the TGI (KM12 colon) was over 100 µM and the GI50 (MOLT-4 leukemia) was 30.2 µM. It also gave a TGI (MOLT-4 leukemia) of over 100 µM, a GI50 (IGROV1 ovarian) of 20.7 µM and a TGI (IGROV1 ovarian) of 72.6 µM. It also gave a GI50 (NCI-H460 lung) of 35.4 µM, a TGI (NCI-H460 lung) of over 100 µM and a GI50 (COLO 205 colon) of 14.1 µM. It also gave a TGI (COLO 205 colon) of 29 µM, a GI50 (CAKI-1 renal) of 29.4 µM and a TGI (CAKI-1 renal) of over 100 µM. For the same compound, the GI50 (HOP-62 NSCLC) was 38.6 µM, the TGI (HOP-62 NSCLC) was over 100 µM and the GI50 (EKVX NSCLC) was 72.4 µM. For the same compound, the TGI (EKVX NSCLC) was over 100 µM, the GI50 (PC-3 prostate) was 42.9 µM and the TGI (PC-3 prostate) was over 100 µM. For the same compound, the GI50 (SF-539 CNS) was 16.7 µM, the TGI (SF-539 CNS) was 39.4 µM and the GI50 (SN12C renal) was over 100 µM. It also gave a TGI (SN12C renal) of over 100 µM, a GI50 (BT-549 breast) of 13.9 µM and a TGI (BT-549 breast) of 85.5 µM. For the same compound, the GI50 (HL-60(TB) leukemia) was 27.7 µM, the TGI (HL-60(TB) leukemia) was 72 µM and the GI50 (HS 578T breast) was 13.5 µM. The TGI (HS 578T breast) was over 100 µM, the GI50 (A549 NSCLC) was 59.4 µM and the TGI (A549 NSCLC) was over 100 µM. It also gave a GI50 (HCT-116 colon) of 24 µM, a TGI (HCT-116 colon) of over 100 µM and a GI50 (SF-295 CNS) of 25.1 µM. For the same compound, the TGI (SF-295 CNS) was 74.8 µM, the GI50 (TK-10 renal) was 45.6 µM and the TGI (TK-10 renal) was over 100 µM. The GI50 (U251 CNS) was 36.3 µM, the TGI (U251 CNS) was over 100 µM and the GI50 (786-0 renal) was 27.6 µM. The TGI (786-0 renal) was over 100 µM.
Compound COc1cc(C2SCC(=O)N2c2ccc(-c3ccc(-n4c(-c5ccccc5)nc5ccccc5c4=O)cc3)cc2)cc(OC)c1OC (stereo not given) has a TGI (MCF7 breast) of over 100 µM, a TGI (K-562 leukemia) of over 100 µM and a TGI (HCT-15 colon) of over 100 µM. For the same compound, the TGI (SK-MEL-28 melanoma) was over 100 µM, the TGI (M14 melanoma) was over 100 µM and the TGI (DU-145 prostate) was over 100 µM. It also gave a TGI (SW-620 colon) of over 100 µM, a TGI (SK-OV-3 ovarian) of over 100 µM and a TGI (SK-MEL-5 melanoma) of over 100 µM. The TGI (HCC-2998 colon) was over 100 µM, the TGI (OVCAR-5 ovarian) was over 100 µM and the TGI (RPMI-8226 leukemia) was over 100 µM. For the same compound, the TGI (T-47D breast) was over 100 µM, the TGI (CCRF-CEM leukemia) was over 100 µM and the TGI (OVCAR-3 ovarian) was 80.9 µM. It also gave a TGI (MDA-MB-435) of over 100 µM, a TGI (SR leukemia) of over 100 µM and a TGI (HT29 colon) of over 100 µM. The TGI (SK-MEL-2 melanoma) was 56.5 µM, the TGI (UO-31 renal) was over 100 µM and the TGI (UACC-62 melanoma) was over 100 µM. For the same compound, the TGI (MDA-MB-231 breast) was over 100 µM, the TGI (SF-268 CNS) was over 100 µM and the TGI (OVCAR-8 ovarian) was over 100 µM. For the same compound, the TGI (MALME-3M melanoma) was over 100 µM, the TGI (A498 renal) was over 100 µM and the TGI (NCI-H226 lung) was over 100 µM. For the same compound, the TGI (OVCAR-4 ovarian) was over 100 µM, the TGI (HOP-92 NSCLC) was over 100 µM and the TGI (SNB-19 CNS) was over 100 µM. The TGI (ACHN renal) was over 100 µM, the TGI (NCI-H522 lung) was 62.3 µM and the TGI (NCI/ADR-RES ovarian) was over 100 µM. The TGI (NCI-H23 lung) was over 100 µM, the TGI (KM12 colon) was 62.9 µM and the TGI (MOLT-4 leukemia) was over 100 µM. It also gave a TGI (IGROV1 ovarian) of over 100 µM, a TGI (NCI-H460 lung) of over 100 µM and a TGI (COLO 205 colon) of over 100 µM. The TGI (CAKI-1 renal) was 45.8 µM, the TGI (HOP-62 NSCLC) was 85.5 µM and the TGI (EKVX NSCLC) was over 100 µM. The TGI (PC-3 prostate) was 41.5 µM, the TGI (SF-539 CNS) was over 100 µM and the TGI (SN12C renal) was over 100 µM. The TGI (BT-549 breast) was 55.4 µM, the TGI (HL-60(TB) leukemia) was over 100 µM and the TGI (HS 578T breast) was over 100 µM. It also gave a TGI (A549 NSCLC) of over 100 µM, a TGI (HCT-116 colon) of 35.1 µM and a TGI (TK-10 renal) of over 100 µM. It also gave a TGI (U251 CNS) of over 100 µM and a TGI (786-0 renal) of 47.6 µM.
